Reference: patent US20110190280A1, “Thiazole And Oxazole Kinase Inhibitors” (priority 2007, published 2011)
Counter-ions that a name gives are not always drawn.

Experiments:
SK-MEL-28 tumor cells = test: Cell growth inhibition assay (CellTiter-Glo), SK-MEL-28; details: Homo sapiens, SK-MEL-28, 72 h, read-out: Activity in SK-MEL-28 Tumor Cells;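 note: luminescent total ATP as a proxy for cell number, threefold serial dilutions at 0.2% DMSO, percent growth inhibition versus DMSO vehicle control wells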
HT-29 tumor cells = test: Cell growth inhibition assay (CellTiter-Glo), HT-29; details: Homo sapiens, HT-29, 72 h, read-out: Activity in HT-29 Tumor Cells;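 note: ATP content read by luminescence as proxy for cell number, growth inhibition versus DMSO vehicle wells, 0.2% DMSO final, nine serial threefold compound dilutions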
B-Raf = B-Raf (Homo sapiens, UniProt P15056); test: B-Raf Accelerated MEK ATPase assay (BRAMA); type: biochemical; details: BRAMA enzyme assay; class by pIC50; read-out: B-Raf Activity
Chain of B-Raf (P15056 whole entry): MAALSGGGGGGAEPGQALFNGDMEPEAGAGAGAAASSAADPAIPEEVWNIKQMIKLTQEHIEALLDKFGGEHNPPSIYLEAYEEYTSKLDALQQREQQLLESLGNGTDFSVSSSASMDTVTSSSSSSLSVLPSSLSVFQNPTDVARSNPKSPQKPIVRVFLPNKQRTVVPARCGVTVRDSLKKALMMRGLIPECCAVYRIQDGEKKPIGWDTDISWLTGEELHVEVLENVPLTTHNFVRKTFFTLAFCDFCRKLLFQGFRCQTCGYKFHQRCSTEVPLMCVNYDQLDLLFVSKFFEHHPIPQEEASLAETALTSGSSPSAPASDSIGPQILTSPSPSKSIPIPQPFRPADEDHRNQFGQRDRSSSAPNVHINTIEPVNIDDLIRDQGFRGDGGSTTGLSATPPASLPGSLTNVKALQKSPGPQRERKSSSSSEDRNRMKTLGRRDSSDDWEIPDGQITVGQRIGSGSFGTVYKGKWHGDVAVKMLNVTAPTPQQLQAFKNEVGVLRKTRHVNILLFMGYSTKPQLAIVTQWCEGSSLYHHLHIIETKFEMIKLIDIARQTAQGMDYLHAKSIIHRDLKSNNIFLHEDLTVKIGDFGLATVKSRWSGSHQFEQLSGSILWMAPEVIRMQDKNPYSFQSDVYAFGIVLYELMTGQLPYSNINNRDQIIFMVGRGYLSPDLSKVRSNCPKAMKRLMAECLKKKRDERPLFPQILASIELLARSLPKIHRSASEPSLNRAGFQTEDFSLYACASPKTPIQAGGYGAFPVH
Method: Compounds of the present invention were tested for B-Raf […] inhibitory activity in a B-Raf Accelerated MEK ATPase assay (BRAMA). The BRAMA assay is a high sensitivity assay which measures an intrinsic MEK-mediated ATP hydrolysis uncoupled from downstream ERK phosphorylation by coupling the formation of ADP to NADH oxidation through the enzymes pyruvate kinase and lactate dehydrogenase. When ADP production is initiated by addition of catalytic amounts of an activated RAF enzyme and non-phosphorylated MEK, one observes robust ADP production concomitant with RAF-mediated phosphorylation of MEK. Specific details of the assay are disclosed in: C. Rominger, M. Schaber, E. May. Assay for B-Raf Activity Based on Intrinsic MEK ATPase Activity.

A375P tumor cells = test: Cell growth inhibition assay (CellTiter-Glo), A375P; details: Homo sapiens, 72 h, read-out: Activity in A375P Tumor Cells;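 note: total ATP luminescence used as proxy for cell number, serial threefold compound dilutions at 0.2% DMSO, growth inhibition expressed versus DMSO vehicle-treated wells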
Colo205 tumor cells = test: Cell growth inhibition assay (CellTiter-Glo), Colo205; details: Homo sapiens, COLO 205, 72 h, read-out: Activity in Colo205 Tumor Cells;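 note: growth measured via total ATP luminescence (CellTiter-Glo) as a proxy for cell number, inhibition expressed against DMSO-treated control wells, 3-day exposure at 0.2% final DMSO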
SK-MEL-3 tumor cells = test: Cell growth inhibition assay (CellTiter-Glo), SK-MEL-3; details: Homo sapiens, SK-MEL3, 72 h, read-out: Activity in SK-MEL-3 Tumor Cells;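 note: human melanoma cells grown with compound for 3 days in 0.2% DMSO, total ATP read by luminescence as proxy for cell number, growth inhibition versus DMSO-treated wells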
Method: Cell Growth Inhibition Assays Human colon tumor cells (Colo205) were cultured in RPMI (Mediatech 50-020-PB) containing 10% FBS and 1% penicillin-streptomycin. […] Human melanoma cancer cells (A375-F11S) were cultured in RPMI (Mediatech 50-020-PB) containing 10% FBS, 1% sodium pyruvate, and 1% penicillin-streptomycin. Human colon cancer cells (HT-29) were cultured in high glucose DMEM (Mediatech 50-013-PB) containing 10% FBS and 1% penicillin-streptomycin. Human melanoma cancer cells (SK-MEL-3) were cultured in McCoy's 5A (50-025-PB) containing 15% FBS, and 1% penicillin-streptomycin. All cell lines were maintained at 37° C. in a humidified 5% CO2, 95% air incubator.
The next day, compounds were diluted as follows: For 96-well assays, 13.5 μl of compound in DMSO were diluted using nine (9) serial 1:3 dilutions of 4.5 μl in 9 μl of DMSO. Medium (270 μl/well of RPMI with 10% FBS and 1% penicillin-streptomycin) was added to the plates. Aliquots (7 μl) were added to cells in the final assay giving a final DMSO concentration of 0.2%. For 384-well assays, 15 μl of compound in DMSO were diluted using nine (9) serial 1:3 dilutions of 5 μl in 10 μl of DMSO, followed by a further dilution of 5 μl of compound with 95 μl of medium, of which 2 μl are added to cells in the final assay giving a final DMSO concentration of 0.2%. Cells were incubated at 37° C., 5% CO2 for 3 days.
Total ATP was measured (as a surrogate estimate of cell number) using CellTiter-Glo® (Promega G7571) reagent. Briefly, plates were removed from the incubator and allowed to equilibrate to room temperature for 30 minutes. CellTiter-Glo® (25 μl or 55 μl for 384-well or 96-well assays, respectively) reagent was added to each well and plates were shaken on an orbital plate shaker for 2 minutes. Plates were incubated without shaking for a further 30 minutes and read on an LJL Analyst GT reader in luminometer mode with an integration time of 0.5 seconds per well. Percent inhibition of cell growth was calculated relative to DMSO vehicle-treated control wells.

Row | SMILES | IC50 (SK-MEL-28 tumor cells) [nM] | IC50 (HT-29 tumor cells) [nM] | IC50 (B-Raf) [nM] | IC50 (A375P tumor cells) [nM] | IC50 (Colo205 tumor cells) [nM] | IC50 (SK-MEL-3 tumor cells) [nM]
1 | COc1cc(OC)cc(-c2nc(NC3CC3)sc2-c2ccnc(Nc3ccc(O[C@@H]4CCN(CCF)C4)nc3)n2)c1 [Example 19, 4-[4-[3,5-Bis(methyloxy)phenyl]-2-(cyclopropylamino)-1,3-thiazol-5-yl]-N-(6-{[(3R)-1-(2-fluoroethyl)-3-pyrrolidinyl]oxy}-3-pyridinyl)-2-pyrimidinamine] | < 500 | < 500 | < 100 | < 500 | < 500 | < 500
2 | CNc1nc(-c2cc(OC)cc(OC)c2)c(-c2ccnc(Nc3ccc(OCCN4CCCC4)c(Cl)c3)n2)s1 [Example 20, 4-[4-[3,5-Bis(methyloxy)phenyl]-2-(methylamino)-1,3-thiazol-5-yl]-N-(3-chloro-4-{[2-(1-pyrrolidinyl)ethyl]oxy}phenyl)-2-pyrimidinamine] | < 500 | < 500 | < 100 | < 500 | < 500 | < 500
3 | COc1cc(OC)cc(-c2nc(NCCF)sc2-c2ccnc(Nc3ccc(OCCN4CCCC4)c(Cl)c3)n2)c1 [Example 21, 4-{4-[3,5-Bis(methyloxy)phenyl]-2-[(2-fluoroethyl)amino]-1,3-thiazol-5-yl}-N-(3-chloro-4-{[2-(1-pyrrolidinyl)ethyl]oxy}phenyl)-2-pyrimidinamine] | 500 to 5000 | < 500 | < 100 | < 500 | 500 to 5000 | < 500
4 | COc1cc(OC)cc(-c2nc(NC3CCC3)sc2-c2ccnc(Nc3ccc(OC4CCN(CCS(C)(=O)=O)CC4)c(F)c3)n2)c1 [Example 22, 4-[4-[3,5-Bis(methyloxy)phenyl]-2-(cyclobutylamino)-1,3-thiazol-5-yl]-N-[3-fluoro-4-({1-[2-(methylsulfonyl)ethyl]-4-piperidinyl}oxy)phenyl]-2-pyrimidinamine] | < 500 | < 500 | < 100 | < 500 | < 500 | < 500
5 | COc1cc(OC)cc(-c2nc(Nc3ccccc3)sc2-c2ccnc(Nc3ccc(OC4CCN(CCS(C)(=O)=O)CC4)c(F)c3)n2)c1 [Example 23, 4-[4-[3,5-Bis(methyloxy)phenyl]-2-(phenylamino)-1,3-thiazol-5-yl]-N-[3-fluoro-4-({1-[2-(methylsulfonyl)ethyl]-4-piperidinyl}oxy)phenyl]-2-pyrimidinamine hydrochloride] | 500 to 5000 | < 500 | < 100 | 500 to 5000 | 500 to 5000 | < 500

Now from value to compound:

Row | IC50 (SK-MEL-28 tumor cells) [nM] | IC50 (HT-29 tumor cells) [nM] | IC50 (B-Raf) [nM] | IC50 (A375P tumor cells) [nM] | IC50 (Colo205 tumor cells) [nM] | IC50 (SK-MEL-3 tumor cells) [nM] | SMILES
6 | 500 to 5000 | < 500 | < 100 | < 500 | 500 to 5000 | < 500 | CCNc1nc(-c2cc(C)cc(OC)c2)c(-c2ccnc(Nc3ccc(N4CCOCC4)c(C(F)(F)F)c3)n2)s1 [Example 25, 4-{2-(Ethylamino)-4-[3-methyl-5-(methyloxy)phenyl]-1,3-thiazol-5-yl}-N-[4-(4-morpholinyl)-3-(trifluoromethyl)phenyl]-2-pyrimidinamine]
7 | < 500 | < 500 | < 100 | < 500 | < 500 | < 500 | CCNc1nc(-c2cc(C)cc(OC)c2)c(-c2ccnc(Nc3ccc(N4CCN(C)CC4)c(Cl)c3)n2)s1 [Example 31, N-[3-Chloro-4-(4-methyl-1-piperazinyl)phenyl]-4-{2-(ethylamino)-4-[3-methyl-5-(methyloxy)phenyl]-1,3-thiazol-5-yl}-2-pyrimidinamine]
8 | < 500 | < 500 | < 100 | < 500 | < 500 | < 500 | CCNc1nc(-c2cc(C)cc(OC)c2)c(-c2ccnc(Nc3ccc(OC4CCN(CCS(C)(=O)=O)CC4)c(F)c3)n2)s1 [Example 32, 4-{2-(Ethylamino)-4-[3-methyl-5-(methyloxy)phenyl]-1,3-thiazol-5-yl}-N-[3-fluoro-4-({1-[2-(methylsulfonyl)ethyl]-4-piperidinyl}oxy)phenyl]-2-pyrimidinamine]
9 | < 500 | < 500 | < 100 | < 500 | < 500 | < 500 | CCNc1nc(-c2cc(C)cc(OC)c2)c(-c2ccnc(Nc3ccc(N4CCN(C)CC4)c(OC)c3)n2)s1 [Example 33, 4-{2-(Ethylamino)-4-[3-methyl-5-(methyloxy)phenyl]-1,3-thiazol-5-yl}-N-[3-(methyloxy)-4-(4-methyl-1-piperazinyl)phenyl]-2-pyrimidinamine]
